This is an account of results in ChEMBL document CHEMBL1139652, “6H,13H-Pyrazino[1,2-a;4,5-a']diindole analogs: probing the pharmacophore for allosteric ligands of muscarinic M2 receptors” (Bioorg Med Chem Lett, 2006).

For experiment [1], the target named is T1, Muscarinic acetylcholine receptor M2 (Homo sapiens, UniProt P08172).
T1 sequence (P08172 whole entry): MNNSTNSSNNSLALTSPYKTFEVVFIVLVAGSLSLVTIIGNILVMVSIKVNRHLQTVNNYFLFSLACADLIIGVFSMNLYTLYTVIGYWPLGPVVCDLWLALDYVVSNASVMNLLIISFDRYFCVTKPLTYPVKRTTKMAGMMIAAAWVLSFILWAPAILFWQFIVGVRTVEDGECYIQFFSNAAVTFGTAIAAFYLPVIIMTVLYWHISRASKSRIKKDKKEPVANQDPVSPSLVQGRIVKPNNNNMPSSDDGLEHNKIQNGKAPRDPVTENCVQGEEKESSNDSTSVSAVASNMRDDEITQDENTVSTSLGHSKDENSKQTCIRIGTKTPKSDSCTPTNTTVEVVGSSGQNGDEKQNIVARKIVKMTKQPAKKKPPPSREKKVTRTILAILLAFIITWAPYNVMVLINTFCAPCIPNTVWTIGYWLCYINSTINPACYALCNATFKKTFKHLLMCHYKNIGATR
Description: Inhibition of [3H]NMS dissociation from muscarinic M2 receptor in Na,K,Pi buffer.

Experiment [2] deals with T1, Muscarinic acetylcholine receptor M2. Description: Inhibition of [3H]NMS dissociation from muscarinic M2 receptor in hepes buffer.
Experiment [3] concerns the target Acetylcholine receptor (Torpedo californica, UniProt P02710+P02712+P02714+P02718). Kind of experiment: Displacement of (+/-)-[3H]epibatidine from muscle type nAChR of Torpedo californica in hepes buffer. The class given is tissue-based, Tetronarce californica.
Experiment [4] can be described thus: Selectivity for muscle type nAChR over muscarinic M2 receptor in hepes buffer.

Acetylcholine receptor, sequence (P02710 whole entry): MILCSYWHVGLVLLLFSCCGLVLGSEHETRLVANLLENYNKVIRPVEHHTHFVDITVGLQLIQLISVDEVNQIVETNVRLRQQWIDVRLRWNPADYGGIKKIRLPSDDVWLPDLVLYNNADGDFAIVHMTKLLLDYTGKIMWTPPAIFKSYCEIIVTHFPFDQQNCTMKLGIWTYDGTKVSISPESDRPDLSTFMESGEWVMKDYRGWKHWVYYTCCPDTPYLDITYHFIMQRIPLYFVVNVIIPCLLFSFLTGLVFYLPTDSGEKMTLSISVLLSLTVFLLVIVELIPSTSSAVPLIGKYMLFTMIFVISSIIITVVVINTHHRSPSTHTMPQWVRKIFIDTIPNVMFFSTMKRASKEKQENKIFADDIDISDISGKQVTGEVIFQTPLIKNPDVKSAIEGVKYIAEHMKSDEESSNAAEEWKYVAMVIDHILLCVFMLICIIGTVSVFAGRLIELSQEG
Acetylcholine receptor, sequence (P02712 whole entry): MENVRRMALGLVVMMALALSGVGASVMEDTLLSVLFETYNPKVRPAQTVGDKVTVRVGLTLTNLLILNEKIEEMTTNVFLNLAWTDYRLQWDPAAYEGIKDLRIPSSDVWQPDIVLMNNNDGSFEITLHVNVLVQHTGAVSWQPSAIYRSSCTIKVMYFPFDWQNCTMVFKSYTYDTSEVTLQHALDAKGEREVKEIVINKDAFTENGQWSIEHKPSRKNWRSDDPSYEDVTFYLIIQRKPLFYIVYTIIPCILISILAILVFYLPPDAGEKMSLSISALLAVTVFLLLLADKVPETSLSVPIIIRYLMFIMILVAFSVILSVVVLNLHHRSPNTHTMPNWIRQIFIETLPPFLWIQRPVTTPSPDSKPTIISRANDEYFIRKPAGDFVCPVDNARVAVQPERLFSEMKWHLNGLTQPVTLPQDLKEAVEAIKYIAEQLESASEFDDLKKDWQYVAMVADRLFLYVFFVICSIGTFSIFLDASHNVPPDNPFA
Acetylcholine receptor, sequence (P02718 whole entry): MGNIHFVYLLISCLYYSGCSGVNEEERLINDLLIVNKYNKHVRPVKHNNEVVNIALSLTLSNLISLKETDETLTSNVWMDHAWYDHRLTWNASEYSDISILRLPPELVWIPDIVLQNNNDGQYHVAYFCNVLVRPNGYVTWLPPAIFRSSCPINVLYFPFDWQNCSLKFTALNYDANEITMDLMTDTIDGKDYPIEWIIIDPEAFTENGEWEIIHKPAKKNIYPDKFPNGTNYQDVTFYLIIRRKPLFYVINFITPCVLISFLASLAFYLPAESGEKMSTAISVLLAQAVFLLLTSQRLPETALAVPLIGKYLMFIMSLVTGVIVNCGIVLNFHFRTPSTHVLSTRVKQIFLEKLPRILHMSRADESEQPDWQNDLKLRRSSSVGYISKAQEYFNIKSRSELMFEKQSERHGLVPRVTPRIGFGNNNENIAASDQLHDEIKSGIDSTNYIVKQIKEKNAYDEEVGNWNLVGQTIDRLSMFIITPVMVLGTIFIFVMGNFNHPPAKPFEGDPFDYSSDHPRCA
Acetylcholine receptor, sequence (P02714 whole entry): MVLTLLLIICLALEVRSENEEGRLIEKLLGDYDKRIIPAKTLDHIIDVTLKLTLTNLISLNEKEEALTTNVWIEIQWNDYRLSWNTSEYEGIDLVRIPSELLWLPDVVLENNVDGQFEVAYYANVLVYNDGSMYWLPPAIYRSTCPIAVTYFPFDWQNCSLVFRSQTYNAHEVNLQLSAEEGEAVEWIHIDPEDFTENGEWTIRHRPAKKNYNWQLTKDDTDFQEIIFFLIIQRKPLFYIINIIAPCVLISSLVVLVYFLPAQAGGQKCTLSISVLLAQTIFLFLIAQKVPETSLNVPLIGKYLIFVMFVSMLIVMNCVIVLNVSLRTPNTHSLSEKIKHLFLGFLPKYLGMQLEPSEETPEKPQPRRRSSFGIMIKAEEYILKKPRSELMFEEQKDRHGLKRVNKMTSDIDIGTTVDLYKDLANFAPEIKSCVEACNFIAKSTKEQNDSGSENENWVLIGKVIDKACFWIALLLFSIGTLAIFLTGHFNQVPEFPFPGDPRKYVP

For orientation: EC50 means the concentration at which the effect is half-maximal. A low value points to an effect from little substance. For orientation: Ki means a dissociation constant, usually derived from enzyme kinetics or from competition with a known ligand. Turning to `C[N+](C)(C)Cc1c2n(c3ccccc13)Cc1c(C[N+](C)(C)C)c3ccccc3n1C2`, the EC50 in experiment [1] is 229 nM; in experiment [2] it was 11200 nM. The Ki in experiment [3] was 331 nM. Besides, in experiment [4], the Selectivity ratio amounted to 34.

`C=CC[N+]12CC[C@@]34c5ccccc5N5[C@@H]6OCC=C7C[N+]8(CC=C)CC[C@]9%10c%11ccccc%11N([C@@H]%11OCC=C(C1)[C@H](C[C@@H]32)[C@@H]%11[C@H]54)[C@H]9[C@H]6[C@H]7C[C@@H]%108` (stereo partly drawn) [DIALLYLCARACURIE V] gave an EC50 in experiment [1] of 11.2 nM. The Ki in experiment [3] is 1510 nM.

For the compound `CN(C)Cc1c2n(c3ccccc13)Cc1c(CN(C)C)c3ccccc3n1C2`, the EC50 in experiment [1] is 447 nM; in experiment [2] it was 16600 nM. This compound also showed a Ki in experiment [3] of 10700 nM. The Selectivity ratio in experiment [4] was determined as 1.5.

Take `C=CC[N+](C)(C)Cc1c2n(c3ccccc13)Cc1c(C[N+](C)(C)CC=C)c3ccccc3n1C2`: the values for the EC50 in experiment [1] and in experiment [2] were 110 nM and 2290 nM, respectively. Moreover, in experiment [3], the affinity, expressed as Ki, was 550 nM. Also, the Selectivity ratio in experiment [4] was 4.2.

`C[N+]12CC[C@@]34c5ccccc5N5[C@@H]6OCC=C7C[N+]8(C)CC[C@]9%10c%11ccccc%11N([C@@H]%11OCC=C(C1)[C@H](C[C@@H]32)[C@@H]%11[C@H]54)[C@H]9[C@H]6[C@H]7C[C@@H]%108` (stereo partly drawn) [DIMETHYLCARACURIE V] gave an EC50 in experiment [1] of 8.13 nM. The same compound gave a Ki in experiment [3] of 5250 nM.

In experiment [1], `C1=C2CN3CC[C@]45c6ccccc6N6[C@@H]7OCC=C8CN9CC[C@]%10%11c%12ccccc%12N([C@H](OC1)[C@@H]([C@H]64)[C@H]2C[C@H]35)[C@H]%10[C@H]7[C@H]8C[C@H]9%11` [CARACURINE V] had a half-maximal effective concentration (EC50) of 437 nM. Moreover, the Ki in experiment [3] was more than 100000 nM.
